By Kd is commonly meant a measure of binding affinity in units of concentration.

Data on seven molecules can be found in PMC2946983 (Bioorganic & medicinal chemistry, 2010).

Assay [1] has as its system human serotonin 5-HT2C receptor. Particulars: isolated natural product; cited from earlier work.
Assay [2] addresses T1, cloned human serotonin 5-HT1A receptor (Homo sapiens, UniProt P08908).
T1 sequence (P08908 1-422): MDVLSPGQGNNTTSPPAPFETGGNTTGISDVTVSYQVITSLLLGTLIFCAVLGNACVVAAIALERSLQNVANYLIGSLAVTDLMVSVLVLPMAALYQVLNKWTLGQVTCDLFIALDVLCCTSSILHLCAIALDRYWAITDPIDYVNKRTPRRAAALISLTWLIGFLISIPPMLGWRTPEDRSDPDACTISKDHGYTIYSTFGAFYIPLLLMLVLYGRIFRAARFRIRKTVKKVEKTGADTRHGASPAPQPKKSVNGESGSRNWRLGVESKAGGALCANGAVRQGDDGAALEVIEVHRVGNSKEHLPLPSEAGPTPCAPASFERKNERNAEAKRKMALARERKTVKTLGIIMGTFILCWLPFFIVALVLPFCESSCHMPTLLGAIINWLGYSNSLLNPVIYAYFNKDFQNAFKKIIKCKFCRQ
Nature of the assay: radioligand binding. To be noted: for affinity for 5-HT1A receptor: stated in words.

Assay [3] deals with cloned human serotonin 5-HT2A receptor (Homo sapiens, UniProt P28223). Briefly: radioligand binding. Particulars: for Binding Affinity (Ki nM) 5-HT2A±SEM: n = 3, ND = not detected at highest concentration tested.
Assay [4] deals with T2, cloned human serotonin 5-HT2C receptor (Homo sapiens, UniProt P28335).
T2 sequence (P28335 33-458): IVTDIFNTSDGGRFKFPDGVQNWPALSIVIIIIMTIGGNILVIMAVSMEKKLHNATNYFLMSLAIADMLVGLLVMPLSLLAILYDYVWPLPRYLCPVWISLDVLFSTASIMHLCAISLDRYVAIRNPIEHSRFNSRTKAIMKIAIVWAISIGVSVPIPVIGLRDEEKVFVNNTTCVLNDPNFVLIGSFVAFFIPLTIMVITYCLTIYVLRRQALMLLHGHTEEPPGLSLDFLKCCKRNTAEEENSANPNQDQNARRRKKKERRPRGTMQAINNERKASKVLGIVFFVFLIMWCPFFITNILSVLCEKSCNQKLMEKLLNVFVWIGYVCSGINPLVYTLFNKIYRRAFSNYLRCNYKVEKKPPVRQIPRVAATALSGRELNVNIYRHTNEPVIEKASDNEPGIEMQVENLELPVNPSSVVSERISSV
Briefly: radioligand binding.

[5] abbreviates: read-out: radioligand affinity KD ± S.D., saturation isotherm.

Bounds are passed on as bounds.

Sequence of cloned human serotonin 5-HT2A receptor (P28223 whole entry): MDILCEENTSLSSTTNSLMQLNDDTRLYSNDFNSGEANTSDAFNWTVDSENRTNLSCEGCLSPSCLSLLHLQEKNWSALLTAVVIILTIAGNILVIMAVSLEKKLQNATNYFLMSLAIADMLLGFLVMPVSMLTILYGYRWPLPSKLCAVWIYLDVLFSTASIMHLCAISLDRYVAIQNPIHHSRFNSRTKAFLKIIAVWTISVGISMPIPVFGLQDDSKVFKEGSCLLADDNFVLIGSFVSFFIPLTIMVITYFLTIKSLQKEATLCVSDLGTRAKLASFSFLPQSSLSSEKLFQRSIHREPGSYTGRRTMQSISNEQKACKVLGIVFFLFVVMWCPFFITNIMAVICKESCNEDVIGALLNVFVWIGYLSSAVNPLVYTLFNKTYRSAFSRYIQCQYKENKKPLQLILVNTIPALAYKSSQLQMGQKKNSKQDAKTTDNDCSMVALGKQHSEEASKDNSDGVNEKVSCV

As to `CN1C(=N)NC(=Cc2c[nH]c3cc(Br)ccc23)C1=O` [6-bromo-2′-de-N-methylaplysinopsin], in assay [1], the “selectivity for 5-HT2C over 5-HT2A receptor” value is recorded as > 40 fold.
With `CN1C(=N)NC(=O)/C1=C\c1c[nH]c2cc(Cl)c(Cl)cc12` [Compound 4, (E)-2-amino-5-[(5,6-dichloro-1H-indol-3-yl)methylene]-1-methyl-1H-imidazol-4(5H)-one], in assay [2], the “affinity for 5-HT1A receptor” value is listed as “little or no apparent affinity”. In addition, the “Binding Affinity (Ki nM) 5-HT2A±SEM” value in assay [3] is recorded as “little or no apparent affinity”. Besides, in assay [4] (n = 3), the “Binding Affinity (Ki nM) 5-HT2C±SEM” value is listed as “little or no apparent affinity”.
With `CN1C(=N)N(C)/C(=C/c2c[nH]c3cc(Cl)ccc23)C1=O` [Compound 14, (E)-5-[(6-chloro-1H-indol-3yl)methylene]-2-imino-1,3-dimethylimidazolidin-4-one], in assay [2], the “affinity for 5-HT1A receptor” value is on record as “lack of affinity”. In assay [3], the “Binding Affinity (Ki nM) 5-HT2A±SEM” value is “lack of affinity”.
In the case of `CN1C(=N)N(C)/C(=C/c2c[nH]c3cc(Br)ccc23)C1=O` [Compound 15, 5-(6-bromo-1H-indol-3-ylmethylene)-2-imino-1,3-dimethyl-imidazolidin-4-one], the “Binding Affinity (Ki nM) 5-HT2A±SEM” value in assay [3] is given as “not detectable”. In addition, the “Ki Selectivity Ratio 5-HT2A/5-HT2C” value in assay [4] is >45.
Turning to `CN1C(=N)N(C)/C(=C/c2c[nH]c3cc(Cl)c(Cl)cc23)C1=O` [Compound 16, (E)-5-[(5,6-dichloro-1H-indol-3-yl)methylene]-2-imino-1,3-dimethylimidazolidin-4-one], in assay [2], the “affinity for 5-HT1A receptor” value is “no detectable affinity”. The “Binding Affinity (Ki nM) 5-HT2A±SEM” value in assay [3] is recorded as “no detectable affinity”.
As to `COc1ccccc1N1CCN(CCN(C(=O)c2ccc(F)cc2)c2ccccn2)CC1` [[^3H]MPPF, 4-(2′-Methoxy)-phenyl-1-[2′-(N-2″-pyridinyl)-p-fluorobenzamido]ethyl-piperazine, reference compound], the dissociation constant (Kd) in assay [2] (setting [5]) was 0.267 ± 0.036 nM.
With `CN1CN(c2ccccc2)C2(CCN(CCCC(=O)c3ccc(F)cc3)CC2)C1=O` [[^3H]methylspiperone, N-Methyl-8-[4-(4-fluorophenyl)-4-oxobutyl]-1-phenyl-1,3,8-triazaspiro-[4.5]decan-4-one, reference compound], the Kd in assay [3] (setting [5]) came to 0.246 ± 0.042 nM.
